Tested on: not listed separately
Assay: Caco-2 membrane permeability and efflux test
Type: in vitro ADME
Settings: human, Caco-2, A-B, Caco-2 monolayer, 37° C., 90 minutes, Sample-01; read-out: Papp Sample-01
Method: • 1) Caco-2 cells in the logarithmic growth phase were taken, digested and centrifuged and the cell concentration was adjusted to 4×10^5 cells/mL with MEM complete medium. • 2) 0.5 mL of cell suspension was added to the apical side (AP side) and 1.5 mL MEM cell complete medium was added to the basal side (BL side) of the Transwell plate, respectively. • 3) Culture in a cell constant temperature incubator, change the culture medium every two days, and change the medium every day after one week of culture. • 4) After about 21 days, the resistance value of the formed continuous monolayer film is greater than 100 Ω·cm^2, and the transport experiment is carried out within 3-5 days. • 5) The test compound solution was added to the AP side as the donor solution (Donor), and 1.5 mL of the receiver solution (Receiver) was added to the basal side (BL side). After the culture plate was placed in an incubator at 37° C. for 90 minutes, the AP side was separated from the BL side to terminate the reaction. • 6) Donor or Receiver samples were diluted with 0.4% DMSO in HBSS, and then mixed with acetonitrile. The LC conditions were as follows: mobile phase A: H2O—0.025% FA-1 mM NH4OAC, B: MeOH-0.025% FA-1 mM NH4OAC. Column: ACQUITY UPLC BEH_C18 ([…], 1.7 μm). Flow rate 0.60 mL/min. Gradient: 0.2 min 2% B, 0.6 min 98% B, 1.3 min 98% B, 1.31 min 2% B, 1.8 min stop. • 7) Calculation formula: Papp=(VA/(area×time))×([drug]receiver/([drug]donor)×dilution factor)
where VA is the volume in the receiving chamber, area is the surface area of the membrane, and time is the total transport time in seconds.
Drug molecules cross the single cell layer or via the cell gap from the apical side (AP side) to the basolateral side (BL side) of the Caco-2 monolayer are A to B, and vice versa are B to A. The efflux ratio: Papp(B−A)/Papp(A−B).
Nc1ncnc2c1c(-c1ccc(Oc3ccccc3)cc1)nn2C1CCCN(CCOCCOCCOCCOCCNc2cccc3c2C(=O)N(C2CCC(=O)NC2=O)C3=O)C1 (stereo not drawn) [Control compound 2] gave a Papp A→B at 90 min of 1.02 ×10⁻⁶ cm/s.
In the case of Nc1ncnc2c1c(-c1ccc(Oc3ccccc3)cc1)nn2C1CCN(CCOCCOCCNc2ccc3c(c2)C(=O)N(C2CCC(=O)NC2=O)C3=O)CC1 (stereo not drawn) [Control compound 3], the Papp A→B at 90 min is reported as 2.14 ×10⁻⁶ cm/s.

Same assay, conditions: human, Caco-2, A-B, Caco-2 monolayer, 37° C., 90 minutes, Sample-02; read-out: Papp Sample-02
In the case of Nc1ncnc2c1c(-c1ccc(Oc3ccccc3)cc1)nn2C1CCCN(CCOCCOCCOCCOCCNc2cccc3c2C(=O)N(C2CCC(=O)NC2=O)C3=O)C1 (stereo not drawn) [Control compound 2], the Papp A→B at 90 min is reported as 1 ×10⁻⁶ cm/s.
With Nc1ncnc2c1c(-c1ccc(Oc3ccccc3)cc1)nn2C1CCN(CCOCCOCCNc2ccc3c(c2)C(=O)N(C2CCC(=O)NC2=O)C3=O)CC1 (stereo not drawn) [Control compound 3] the Papp A→B at 90 min was 2.16 ×10⁻⁶ cm/s.

Same assay, conditions: human, Caco-2, A-B, Caco-2 monolayer, 37° C., 90 minutes, mean of two samples; read-out: Papp Mean
For Nc1ncnc2c1c(-c1ccc(Oc3ccccc3)cc1)nn2C1CCCN(CCOCCOCCOCCOCCNc2cccc3c2C(=O)N(C2CCC(=O)NC2=O)C3=O)C1 (stereo not drawn) [Control compound 2], the Papp A→B at 90 min was 1.01 ×10⁻⁶ cm/s.
Nc1ncnc2c1c(-c1ccc(Oc3ccccc3)cc1)nn2C1CCN(CCOCCOCCNc2ccc3c(c2)C(=O)N(C2CCC(=O)NC2=O)C3=O)CC1 (stereo not drawn) [Control compound 3] gave a Papp A→B at 90 min of 2.15 ×10⁻⁶ cm/s.

Same assay, conditions: human, Caco-2, B-A, Caco-2 monolayer, 37° C., 90 minutes, Sample-01; read-out: Papp Sample-01
For Nc1ncnc2c1c(-c1ccc(Oc3ccccc3)cc1)nn2C1CCCN(CCOCCOCCOCCOCCNc2cccc3c2C(=O)N(C2CCC(=O)NC2=O)C3=O)C1 (stereo not drawn) [Control compound 2], the Papp B→A at 90 min was 18.1 ×10⁻⁶ cm/s.
Nc1ncnc2c1c(-c1ccc(Oc3ccccc3)cc1)nn2C1CCN(CCOCCOCCNc2ccc3c(c2)C(=O)N(C2CCC(=O)NC2=O)C3=O)CC1 (stereo not drawn) [Control compound 3] gave a Papp B→A at 90 min of 33.5 ×10⁻⁶ cm/s.

Same assay, conditions: human, Caco-2, B-A, Caco-2 monolayer, 37° C., 90 minutes, Sample-02; read-out: Papp Sample-02
Compound Nc1ncnc2c1c(-c1ccc(Oc3ccccc3)cc1)nn2C1CCCN(CCOCCOCCOCCOCCNc2cccc3c2C(=O)N(C2CCC(=O)NC2=O)C3=O)C1 (stereo not drawn) [Control compound 2] has a Papp B→A at 90 min of 18.6 ×10⁻⁶ cm/s.
With Nc1ncnc2c1c(-c1ccc(Oc3ccccc3)cc1)nn2C1CCN(CCOCCOCCNc2ccc3c(c2)C(=O)N(C2CCC(=O)NC2=O)C3=O)CC1 (stereo not drawn) [Control compound 3] the Papp B→A at 90 min was 34.8 ×10⁻⁶ cm/s.

Same assay, conditions: human, Caco-2, B-A, Caco-2 monolayer, 37° C., 90 minutes, mean of two samples; read-out: Papp Mean
For Nc1ncnc2c1c(-c1ccc(Oc3ccccc3)cc1)nn2C1CCCN(CCOCCOCCOCCOCCNc2cccc3c2C(=O)N(C2CCC(=O)NC2=O)C3=O)C1 (stereo not drawn) [Control compound 2], the Papp B→A at 90 min was 18.4 ×10⁻⁶ cm/s.
In the case of Nc1ncnc2c1c(-c1ccc(Oc3ccccc3)cc1)nn2C1CCN(CCOCCOCCNc2ccc3c(c2)C(=O)N(C2CCC(=O)NC2=O)C3=O)CC1 (stereo not drawn) [Control compound 3], the Papp B→A at 90 min is reported as 34.1 ×10⁻⁶ cm/s.

Same assay, conditions: human; efflux ratio, Caco-2; read-out: Papp(B-A)/Papp(A-B)
With Nc1ncnc2c1c(-c1ccc(Oc3ccccc3)cc1)nn2C1CCCN(CCOCCOCCOCCOCCNc2cccc3c2C(=O)N(C2CCC(=O)NC2=O)C3=O)C1 (stereo not drawn) [Control compound 2] the efflux ratio at 90 min was 18.1.
Nc1ncnc2c1c(-c1ccc(Oc3ccccc3)cc1)nn2C1CCN(CCOCCOCCNc2ccc3c(c2)C(=O)N(C2CCC(=O)NC2=O)C3=O)CC1 (stereo not drawn) [Control compound 3] showed an efflux ratio at 90 min of 15.9.

Tested on: TMD8 (BTK-C481S) mutant cells
Assay: Proliferation inhibition of TMD8 (BTK-C481S) mutant cells (CCK-8)
Type: cell-based
Settings: Homo sapiens, TMD8, 72 h
Method: Cell plating: TMD8 (BTK-C481S) mutant cells in the logarithmic growth phase were taken, centrifuged, and an appropriate amount of complete medium was added to obtain a single-cell suspension. Cell counting was carried out with a hemocytometer, and a cell suspension of 1.5×10^5 cells/mL was prepared. 100 μL of cell suspension per well was inoculated in a 96-well culture plate, and cultured in a CO2 cell incubator for 24 hours.
The plates were shaken well, placed in a CO2 cell incubator, and continued to incubate for 72h.
CCK-8 detection: 72 hours after administration, 10% CCK-8 solution was added to each well. The plates were placed in a CO2 cell incubator, and incubated for 1-4 hours. The absorbance of each well was measured at 450 nm using a microplate reader.
With C=CC(=O)N1CCC[C@@H](n2nc(-c3ccc(Oc4ccccc4)cc3)c3c(N)ncnc32)C1 [Ibrutinib] the IC50 was 125 nM.

Reference: patent US12624042B2, “Compound for targeted degradation of BTK and anti-tumour use thereof” (SHANGHAI MEIZER PHARMACEUTICALS CO., LTD., priority 2020, dated 2026)
